Results: publication PMC9234963, “Optimizing Shape Complementarity Enables the Discovery of Potent Tricyclic BCL6 Inhibitors” (Journal of Medicinal Chemistry, 2022)
“And” between values parts separate entries of the source, which are not always exact repeats. Equal entries are not always repeated. Where two headings read alike, the source gives them in different places.

What was measured:
PAMPA permeability = details: pH 7.4
[1] = HPLC kinetic solubility assay; format: physicochemical; details: kinetic solubility by HPLC, 10 mM phosphate-buffered saline pH 7.4, 1% DMSO
Experimental: 3.2 HPLC solubility assay
DMSO. Following shaking of the suspension on a Bohdan Shaker at 500 rpm for 2 hours at room […]
200 µL of the supernatant was transferred to a 2 mL Agilent vial containing 50 µL of DMSO (Sigma […]
detection using an external standard which was prepared by pipetting 10 µL of the same batch of […]
The detail of the HPLC method is as following: chromatographic separation at 30°C is carried out over a 5 minute gradient elution method from 90:10 to 10:90 water:methanol (both modified with 0.1% formic acid) at a flow rate of 1.5 mL/min. Calibration curve is prepared by injecting 0.5, 2.5, and 5 µL of compound external standard.
62.5 µL of compound solubility sample. […]

[2] = cited from earlier work
human BCL6 BTB domain = human BCL6 BTB domain (Homo sapiens, UniProt P41182); assay: biochemical; details: for BCL6 TR-FRET mean pIC50: mean of replicates
Text: 6. Supplementary tables … S-17
Table S1: summary statistics and individual replicate values … S-17 […]
1. Supplementary experimental: protein production, purification and crystallography 1.1 BCL6 constructs used for assays and crystallography
A first construct of BCL6 BTB domain, which we will refer to as Trx-6His-HRV3C-BCL6, was obtained […]
3C protease cleavage site. For the TR-FRET assay, the Trx-6His-HRV3C-BCL6 protein construct was […]
used without cleaving the tag, as a 6His was needed to bind to the anti-6His-Terbium antibody. […]
For both plasmid constructs described above, transformed BL21-AI E. coli cells were grown in LB […]
carried out at 18 °C for 18 hours. Cells were harvested by centrifugation (5500 g for 30 minutes at 4 […]
oC) and stored at -80 °C.
2. Supplementary experimental: biological assay conditions
IC50 values were determined using […]
a sigmoidal four-parameter logistic fit equation.
Individual replicates shown in supplementary

Karpas 422 = assay: Cell proliferation assay (14 days, CellTiter Glo), Karpas 422; format: cell-based; details: Homo sapiens, KARPAS-422, read-out: Karpas 422 GI50, BCL6-high line
Experimental: (§1) After a short centrifugation the plates
(§2) The % inhibition at each test
(§3) 2.3 Cell proliferation assay
(§4) Compounds were initially dispensed into 96- […]
(§5) medium and transferred onto the cells.
(§6) The volume of medium containing 2500 cells in the control well was calculated and this volume of cells was transferred from every well of the assay plates to the corresponding well of the fresh plates containing compound. After 14 days, CellTiter Glo reagent (Promega) was added to the medium in each well of the assay plate at a ratio of 1:2, mixed on a plate shaker, then incubated at room temperature for 10 minutes. Luminescence was measured using an Envision plate reader (Perkin Elmer) and the relative luminescence at each compound concentration, compared to DMSO alone, was calculated. GI50 were determined using a 4-parameter curve fit in Dotmatics (Bishops Stortford, UK).

OCI-Ly1 = assay: Cell proliferation assay (14 days, CellTiter Glo), OCI-Ly1; format: cell-based; details: Homo sapiens, BCL6-high line
Experimental: as §1, §2, §3, §4, §5, §6

OCI-Ly3 = assay: Cell proliferation assay (14 days, CellTiter Glo), OCI-Ly3; format: cell-based; details: Homo sapiens, BCL6-low line
Experimental: as §1, §2, §3, §4, §5, §6

[3] = read-out: BCL6 TR-FRET IC50, geometric mean of replicates
[4] = read-out: BCL6 TR-FRET IC50 individual replicates, single replicates, 10 nM BCL6 for early examples, else 1 nM

SMILES | PAMPA Pe (7.4) (PAMPA permeability) | Aq. Sol [1] [µM] | passive permeability [2] | BCL6 TR-FRET mean pIC50 (human BCL6 BTB domain) | IC50 (human BCL6 BTB domain; [3]) [nM] | IC50 (human BCL6 BTB domain; [4]) | GI50 (Karpas 422) [nM] | GI50 (OCI-Ly1) [nM] | GI50 (OCI-Ly3) [nM] | IC50 (human BCL6 BTB domain; BCL6 TR-FRET IC50 individual replicates, single replicates, 10 nM BCL6 for early examples, else 1 nM) | IC50 (human BCL6 BTB domain; read-out: BCL6 TR-FRET IC50, Figure 1)
Cn1c(=O)cc(NC(C)(C)c2ncc(C3CC3)cn2)c2cc(Nc3ccnc(Cl)c3C#N)ccc21 [Compound 3] | 35 × 10^–6 cm s^–1 | 31 | high | 7.58 | 26 | 25.5 nM and 33.1 nM and 41 nM and 22.6 nM and 15.6 nM | 3320 | – | – | – | –
Cn1c(=O)c2c(c3cc(Nc4ccnc(Cl)c4C#N)ccc31)N[C@@H](C1CC1)C(F)(F)CO2 [Compound 1, (S)-2-Chloro-4-((2-cyclopropyl-3,3-difluoro-7-methyl-6-oxo-1,2,3,4,6,7-hexahydro-[1,4]oxazepino[2,3-c]quinolin-10-yl)amino)nicotinonitrile] | – | – | – | 8.40 and 8.41 | 3.9 | 3.9 nM | 190 | 170 | 3400 | 2.9 nM (3×) and 2.4 nM and 16.2 nM | 4 nM and 3.9 nM
